The values below are quoted from earlier work in patent US6734210B2, “Therapeutically improved salts of azelaic acid” (priority 2000, dated 2004).

For the compound `O=C(O)CCCCCCCC(=O)O` [azelaic acid], the “solubility in cosmetic oils” value (cosmetic oils) was “little or no solubility”. Moreover, under “water”, the “maximum azelaic acid content of a water solution” value was “about 0.24 % by weight (w/w)”.
